Patent US20220387408A1, “USE OF MAST CELL STABILIZER FOR THE TREATMENT OF HEART FAILURE WITH PRESERVED EJECTION FRACTION” (INSERM (INSTITUT NATIONAL DE LA SANTÉ ET DE LA RECHERCHE …, priority 2019, published 2022)
“Also recorded” adds a separate entry of the source.

Assays:
Format in all cases: in vivo
Lepr^db/db female mice [1] = experiment: LV end diastolic pressure measurement by pressure catheter in Lepr^db/db mice; conditions: 2 month old Lepr^db/db female mice
Description: Lepr^db mice (BKS.Cg-Dock7m/+ Lepr^db/+J) were obtained from Charles River laboratories and bred together to obtain Lepr^db/db and control Lepr^db/+ mice. To prevent mast cell degranulation, mice were treated with 50 mg/kg/day cromolyn sodium (Abcam) via intra-peritoneal injections for 28 days. Untreated mice received 0.9% NaCl daily intra-peritoneal injections. […] LV diastolic pressure measurement was assessed using pressure—volume conductance catheter technique. Briefly, mice will be anesthetized with Isoflurane. A Scisense pressure catheter (Transonic) will be inserted into the LV through the common carotid artery. Pressure will be recorded using […] LabChart software. End diastolic pressure, dP/dt minimum and maximum, Tau and heart rate were automatically calculated by a curve fit through end-systolic and end-diastolic points on the pressure plot.

Lepr^db/db female mice [2] = experiment: Echocardiography (ejection fraction, LV wall thickness) in Lepr^db/db mice; conditions: data not shown
Source text: Lepr^db mice (BKS.Cg-Dock7m/+ Lepr^db/+J) were obtained from Charles River laboratories and bred together to obtain Lepr^db/db and control Lepr^db/+ mice.
[…] Untreated mice received 0.9% NaCl daily intra-peritoneal injections.
Left-ventricular ejection fraction and LV dimension will be measured on a high-resolution echocardiographic system equipped with a 30-MHz mechanical transducer (VEVO 2100, VisualSonics Inc.) as previously described 13,14. Mice were anchored to a warming platform in a supine position, limbs were taped to the echocardiograph electrodes, and chests were shaved and cleaned with a chemical hair remover to minimize ultrasound attenuation. UNI′GEL ECG (Asept Inmed), from which all air bubbles had been expelled, was applied to the thorax to optimize the visibility of the cardiac chambers. Ejection fractions were evaluated by planimetry as recommended (Schiller et al. 1989). Two-dimensional, parasternal long-axis and short-axis views were acquired, and the endocardial area of each frame was calculated by tracing the endocardial limits in the long-axis view, then the minimal and maximal areas were used to determine the left-ventricular end-systolic (ESV) and end-diastolic (EDV) volumes, respectively. The system software uses a formula based on a cylindrical-hemiellipsoid model (volume=8·area^2/3π/length) 15. The left-ventricular ejection fraction was derived from the following formula: (EDV−ESV)/EDV*100. The cardiac wall thickness (Left ventricular posterior wall (LVPW), Inter-ventricular septum (IVS) and left ventricular internal diameter (LVID) were calculated by tracing wall limits in both the long and short axis views.

Lepr^db/db female mice [3] = experiment: Immuno-histological assessment of the heart (capillaries, albumin, CD45+ leucocytes, mast cells, cardiomyocyte size) in Lepr^db/db mice
Description: Lepr^db mice (BKS.Cg-Dock7m/+ Lepr^db/+J) were obtained from Charles River laboratories and bred together to obtain Lepr^db/db and control Lepr^db/+ mice. To prevent mast cell degranulation, mice were treated with 50 mg/kg/day cromolyn sodium (Abcam) via intra-peritoneal injections for 28 days. Untreated mice received 0.9% NaCl daily intra-peritoneal injections. […] Prior to staining, heart were stopped in diastole using KCl, perfused and then fixed in 10% formalin for 4 hours, paraffin embedded and cut into 7 μm thick sections. Alternatively, heart were fresh frozen in OCT, then cut into 7 μm thick sections. ECs were identified using rat anti-CD31 antibodies (Histonova, cat #DIA-310). Albumin was stained using sheep anti-albumin antibodies (Abcam, Cat #ab8940). Pan-leucocytes were identified using rat anti-mouse CD45 antibodies (BD Pharmingen Inc, Cat #550539). For immunofluorescence analyzes, primary antibodies were resolved with Alexa Fluor®-conjugated secondary polyclonal antibodies (Invitrogen, Cat #[NT]-10037) and nuclei were counterstained with DAPI (1/5000). Negative controls using secondary antibodies only were done to check for antibody specificity. Capillary density (CD31+ vessels) was quantified in 4 pictures taken under ×260 magnification in areas where cardiomyocytes were oriented transversally. To assess the mean capillary diameter, the diameter of 10 capillary randomly chosen in each picture was measured via Image J. Inflammatory cell density (CD45+) was quantified in 8 pictures randomly taken under ×260 magnification. All pictures and quantifications (done using ImageJ/Fiji v2.0.0-rc-59 software (National Institute of Health, USA)) were performed by a blinded investigator. More precisely, all samples were assigned a random number prior to animal sacrifice, data collection and analysis. At the end of the experiment, the genotype/treatment for each animal was unveiled to allow data comparison and experimental conclusion.

Lepr^db/db female mice [4] = experiment: Heart weight in Lepr^db/db mice; conditions: 50 mg/kg/day cromolyn sodium for 28 days; data not shown
Description: To prevent mast cell degranulation, mice were treated with 50 mg/kg/day cromolyn sodium (Abcam) via intra-peritoneal injections for 28 days. Untreated mice received 0.9% NaCl daily intra-peritoneal injections.

[5] = 50 mg/kg/day cromolyn sodium for 28 days

| SMILES | End diastolic pressure (EDP) (Lepr^db/db female mice [1]; 4 mg/kg/day cetirizine orally (drinking water) for 28 days vs vehicle, FIG. 1B) | Ejection fraction (Lepr^db/db female mice [2]; 4 mg/kg/day cetirizine orally for 28 days) | Cardiac microvessel density (CD31+ vessels/mm^2) (Lepr^db/db female mice [3]; 50 mg/kg/day cromolyn sodium for 28 days vs vehicle, FIG. 2A) | Mean cardiac capillary diameter (Lepr^db/db female mice [3]; 50 mg/kg/day cromolyn sodium for 28 days vs vehicle, FIG. 2B) | Capillary permeability (albumin extravasation, albumin+ surface area) (Lepr^db/db female mice [3]; 50 mg/kg/day cromolyn sodium for 28 days vs vehicle, FIG. 2C) | CD45+ leucocyte recruitment (CD45+ cells/mm^2) (Lepr^db/db female mice [3]; 50 mg/kg/day cromolyn sodium for 28 days vs vehicle, FIG. 2D) | Percentage of degranulating mast cells in the heart (Lepr^db/db female mice [3]; 50 mg/kg/day cromolyn sodium for 28 days vs vehicle, data not shown) | Mean cardiomyocyte size (Lepr^db/db female mice [3]; 50 mg/kg/day cromolyn sodium for 28 days, data not shown) | Heart weight (Lepr^db/db female mice [4]) | End diastolic pressure (EDP) (Lepr^db/db female mice [1]; 50 mg/kg/day cromolyn sodium intra-peritoneal for 28 days vs vehicle, FIG. 1A) | End diastolic pressure (EDP) (Lepr^db/db female mice [1]; 50 mg/kg/day cromolyn sodium intra-peritoneal for 28 days vs vehicle, FIG. 1A, listed as Cromolyn Sodium) | End diastolic pressure (EDP) (Lepr^db/db female mice [1]; 50 mg/kg/day cromolyn sodium intra-peritoneal for 28 days vs vehicle, FIG. 1A, listed as Cromolyn sodium) | Ejection fraction (Lepr^db/db female mice [2]; [5]) | LV posterior wall thickness (Lepr^db/db female mice [2]; [5]) |
| --- | --- | --- | --- | --- | --- | --- | --- | --- | --- | --- | --- | --- | --- | --- |
| O=C(O)COCCN1CCN(C(c2ccccc2)c2ccc(Cl)cc2)CC1 (centres unmarked) [cetirizine] | significantly decreased | not modulated | – | – | – | – | – | – | – | – | – | – | – | – |
| O=C(O)c1cc(=O)c2c(OCC(O)COc3cccc4oc(C(=O)O)cc(=O)c34)cccc2o1 [cromolyn sodium] | – | – | did not modify | did reduce | decreased | decreases; also recorded: significantly decreased | did decrease | did neither modify | did neither modify | significantly decreased; also recorded: prevents increased EDP | prevents the occurrence of diastolic dysfunction | significantly reduced | not modulated | did neither modify |
